Measurements from patent US11541050B2, “Pyrimidine derivatives for the treatment of viral infections” (JANSSEN SCIENCES IRELAND UC, priority 2011, dated 2023).

Experiments:
[1] = target: T1, human TLR8 (wild type sequence) (Homo sapiens, UniProt Q9NR97); experiment: TLR8 cellular NFκB-luc reporter assay, wild type TLR8; format: cell-based; set-up: unit not given here; conditions: lowest effective concentration, wild type TLR8 (compounds 74 onward)
T1 construct: expressed in transfected cells; host or cells: HEK293
T1 sequence (Q9NR97 27-1041): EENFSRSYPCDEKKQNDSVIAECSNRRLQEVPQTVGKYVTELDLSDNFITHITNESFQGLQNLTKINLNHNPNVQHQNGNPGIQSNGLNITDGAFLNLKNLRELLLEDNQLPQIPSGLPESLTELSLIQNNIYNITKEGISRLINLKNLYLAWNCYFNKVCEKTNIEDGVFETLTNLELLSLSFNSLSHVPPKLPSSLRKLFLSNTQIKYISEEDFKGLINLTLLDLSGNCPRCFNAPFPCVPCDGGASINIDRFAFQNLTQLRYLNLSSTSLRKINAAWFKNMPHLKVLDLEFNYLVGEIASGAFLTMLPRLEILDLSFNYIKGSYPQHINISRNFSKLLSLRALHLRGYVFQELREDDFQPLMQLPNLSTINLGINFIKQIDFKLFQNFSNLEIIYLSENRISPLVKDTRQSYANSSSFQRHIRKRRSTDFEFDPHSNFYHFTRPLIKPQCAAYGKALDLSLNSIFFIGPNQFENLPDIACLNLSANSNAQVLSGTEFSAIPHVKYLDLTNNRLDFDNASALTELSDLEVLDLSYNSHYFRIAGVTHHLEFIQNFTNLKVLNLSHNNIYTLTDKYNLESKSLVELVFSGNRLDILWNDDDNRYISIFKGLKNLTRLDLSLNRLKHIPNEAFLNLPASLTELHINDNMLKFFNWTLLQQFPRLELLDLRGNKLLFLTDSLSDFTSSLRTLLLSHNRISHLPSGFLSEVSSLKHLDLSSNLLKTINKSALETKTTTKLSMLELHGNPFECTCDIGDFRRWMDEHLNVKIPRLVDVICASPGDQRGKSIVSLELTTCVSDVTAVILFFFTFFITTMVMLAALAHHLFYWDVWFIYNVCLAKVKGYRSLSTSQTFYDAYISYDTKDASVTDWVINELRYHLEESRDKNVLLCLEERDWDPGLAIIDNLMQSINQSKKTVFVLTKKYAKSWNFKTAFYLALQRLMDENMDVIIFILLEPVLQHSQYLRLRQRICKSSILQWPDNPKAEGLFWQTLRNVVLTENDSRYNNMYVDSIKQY
Description: (§1) The ability of compounds to activate human TLR7 and/or TLR8 was assessed in a cellular reporter assay using HEK293 cells transiently transfected with a TLR7 or TLR8 expression vector and NFκB-luc reporter construct. In one instance the TLR expression construct expresses the respective wild type sequence or a mutant sequence comprising a deletion in the second leucine-rich repeat of the TLR.
(§2) Briefly, HEK293 cells were grown in culture medium (DMEM supplemented with 10% FCS and 2 mM Glutamine). For transfection of cells in 10 cm dishes, cells were detached with Trypsin-EDTA, transfected with a mix of CMV-TLR7 or TLR8 plasmid (750 ng), NFκB-luc plasmid (375 ng) and a transfection reagent and incubated for 48 hours at 37° C. in a humidified 5% CO2 atmosphere. Transfected cells were then detached with Trypsin-EDTA, washed in PBS and resuspended in medium to a density of 1.67×10^5 cells/mL. Thirty microliters of cells were then dispensed into each well in 384-well plates, where 10 μL of compound in 4% DMSO was already present. Following 6 hours incubation at 37° C., 5% CO2, the luciferase activity was determined by adding 15 μl of Steady Lite Plus substrate (Perkin Elmer) to each well and readout performed on a ViewLux ultraHTS microplate imager (Perkin Elmer). Dose response curves were generated from measurements performed in quadruplicates. Lowest effective concentrations (LEC) values, defined as the concentration that induces an effect which is at least two fold above the standard deviation of the assay, were determined for each compound.

[2] = target: T2, human TLR7 (wild type sequence) (Homo sapiens, UniProt Q9NYK1); experiment: TLR7 cellular NFκB-luc reporter assay, wild type TLR7; format: cell-based; set-up: unit not given here; conditions: lowest effective concentration, wild type TLR7 (compounds 74 onward)
T2 construct: expressed in transfected cells; host or cells: HEK293
T2 sequence (Q9NYK1 27-1049): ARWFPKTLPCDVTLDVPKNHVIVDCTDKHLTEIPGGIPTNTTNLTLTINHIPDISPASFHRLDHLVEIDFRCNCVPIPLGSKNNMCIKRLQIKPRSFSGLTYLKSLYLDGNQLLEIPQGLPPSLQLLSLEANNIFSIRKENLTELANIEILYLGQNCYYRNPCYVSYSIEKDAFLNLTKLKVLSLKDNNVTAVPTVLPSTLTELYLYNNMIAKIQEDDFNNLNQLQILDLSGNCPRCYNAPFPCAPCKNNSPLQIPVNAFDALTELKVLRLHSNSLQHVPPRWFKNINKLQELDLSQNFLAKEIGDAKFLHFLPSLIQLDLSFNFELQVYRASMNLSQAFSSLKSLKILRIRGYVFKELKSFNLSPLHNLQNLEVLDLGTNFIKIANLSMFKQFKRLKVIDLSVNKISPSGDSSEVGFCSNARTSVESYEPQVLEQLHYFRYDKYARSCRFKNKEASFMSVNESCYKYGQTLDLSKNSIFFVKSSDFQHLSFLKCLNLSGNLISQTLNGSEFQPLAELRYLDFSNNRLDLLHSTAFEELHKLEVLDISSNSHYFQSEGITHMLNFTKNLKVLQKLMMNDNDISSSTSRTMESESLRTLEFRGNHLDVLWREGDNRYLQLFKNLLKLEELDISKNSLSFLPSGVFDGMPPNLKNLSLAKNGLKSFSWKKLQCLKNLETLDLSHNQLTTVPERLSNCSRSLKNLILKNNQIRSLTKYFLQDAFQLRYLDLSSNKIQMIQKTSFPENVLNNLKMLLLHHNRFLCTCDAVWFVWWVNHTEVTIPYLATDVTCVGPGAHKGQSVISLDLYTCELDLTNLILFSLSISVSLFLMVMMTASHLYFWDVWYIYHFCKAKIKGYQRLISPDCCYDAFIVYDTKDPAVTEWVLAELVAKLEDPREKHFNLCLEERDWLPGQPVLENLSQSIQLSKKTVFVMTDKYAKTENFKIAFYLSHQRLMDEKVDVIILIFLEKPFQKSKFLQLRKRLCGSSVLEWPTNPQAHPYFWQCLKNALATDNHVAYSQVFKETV
Description: as §1, §2

[3] = tested on: HCV replicon in Huh-7 luc/neo cells; experiment: Suppression of HCV replicon replication by conditioned media from compound-treated PBMC; format: cell-based, HCV type 1 b; conditions: Hepatitis C virus; conditioned media from compound-treated PBMC on Huh-7 luc/neo replicon cells (compounds 74 onward); read-out: PBMC HUH-7 EC50
Description: Activation of human TLR7 results in robust production of interferon by plasmacytoid dendritic cells present in human blood. The potential of compounds to induce interferon was evaluated by looking at the antiviral activity in the HCV replicon system upon incubation with conditioned media from peripheral blood mononuclear cells (PBMC). […] The assay utilized the stably transfected cell line Huh-7 luc/neo harboring an RNA encoding a bicistronic expression construct comprising the wild type NS3-NS5B regions of HCV type 1 b translated from an Internal Ribosome Entry Site (IRES) from encephalomyocarditis virus (EMCV), preceded by a reporter gene (Firefly-luciferase) and a selectable marker gene (neoR, neomycine phosphotransferase). The construct is flanked by 5′ and 3′ NTRs (non-translated regions) from HCV type 1 b. Continued culture of the replicon cells in the presence of G418 (neoR) is dependent on the replication of the HCV RNA. The stably transfected replicon cells that replicate HCV RNA autonomously and to high levels, encoding inter alia luciferase, were used for profiling of the conditioned cell culture media.
Briefly, PBMCs were prepared from buffy coats of at least two donors using a standard Ficoll centrifugation protocol. Isolated PBMCs were resuspended in RPMI medium supplemented with 10% human AB serum and 2×10^5 cells/well were dispensed into 384-well plates containing compounds (70 μL total volume). After overnight incubation, 10 μL of supernatant was transferred to 384-well plates containing 2.2×10^3 replicon cells/well in 30 μL (plated the day before). Following 24 hours of incubation, replication was measured by assaying luciferase activity using 40 μL/well Steady Lite Plus substrate (Perkin Elmer) and measured with ViewLux ultraHTS microplate imager (Perkin Elmer). […] Recombinant interferon α-2a (Roferon-A) was used as a standard control compound.

SMILES | TLR 8 wt LEC [1] | TLR 7 wt LEC [2] | EC50 [3] [nM]
CCCCNc1nc(N)ncc1OCc1cccc(C(N)=O)n1 [Compound 176] | 0.463 | 0.868 | 173
CCCCNc1nc(N)ncc1OCCOc1ccc(OC)c(OC)c1 [Compound 140] | 2.250 | 0.617 | 175
CCCCNc1nc(N)ncc1OCCC(c1ccccc1)c1ccccc1 [Compound 167] | >25 | 1.200 | 764
CCCCNc1nc(N)ncc1OCc1cc2c(cn1)[nH]c1ccccc12 [Compound 159] | 1.080 | 0.159 | 18
CCCCNc1nc(N)ncc1OCCOc1ccc(C(F)(F)F)cc1 [Compound 135] | 1.970 | 3.230 | 3190
CCCCNc1nc(N)ncc1OCC(C)(O)CC (stereo not drawn) [Compound 104] | 12.390 | >25 | > 23800
CCCCNc1nc(N)ncc1OCCCc1ccccc1Br [Compound 108] | >25 | 6.580 | 6770
CCCCNc1nc(N)ncc1OCCCc1cc(OC)cc(OC)c1 [Compound 147] | 4.340 | 2.520 | 746
CCCCCNc1nc(N)ncc1OC(C)c1ccccc1 (stereo not drawn) [Compound 96] | 6.340 | >25 | 4310
CCCCNc1nc(N)ncc1OCCCc1ccc(OC)cc1OC [Compound 163] | 2.500 | 0.573 | 728
CCCCNc1nc(N)ncc1OCCCc1ccccc1OC [Compound 149] | 5.850 | 2.080 | 703
CCCCCNc1nc(N)nc(C)c1OCc1ccccc1 [Compound 124] | 13.650 | 15.610 | > 23800
CCCCNc1nc(N)ncc1OCc1cc(OC)ccn1 [Compound 171] | 1.060 | 0.396 | 158
CCCCNc1nc(N)ncc1OCCCc1ccc(Cl)c(Cl)c1 [Compound 169] | >25 | 5.110 | 3130
CCCCNc1nc(N)ncc1OCc1ncccc1OC [Compound 179] | 0.142 | 0.078 | 21
CCCCNc1nc(N)ncc1OCc1ccc(C(F)(F)F)nc1 [Compound 121] | 3.020 | 0.797 | 272
CCCCNc1nc(N)ncc1OCCOc1ccnc2cc(OC)ccc12 [Compound 141] | 0.704 | 4.360 | 733
CCCCCC(C)Nc1nc(N)ncc1OCc1ccc2ccccc2n1 (stereo not drawn) [Compound 189] | >25 | 11.990 | 17600
CCCCNc1nc(N)ncc1OCCOc1ccc(C#N)cc1 [Compound 126] | 1.020 | 1.000 | 264
CCC[C@@H](CO)Nc1nc(N)ncc1OCc1ccc2ccccc2n1 [Compound 192] | 0.220 | 0.080 | 44
CCCCNc1nc(N)ncc1OCCOCc1ccccc1 [Compound 83] | 1.610 | 0.997 | 204
CCCCNc1nc(N)ncc1OCCCc1ccc(Cl)cc1Cl [Compound 152] | >25 | 5.410 | 3350
CCCCNc1nc(N)ncc1OCCn1ccc(=O)c2ccc(OC)cc21 [Compound 144] | 20.790 | 13.010 | 1320
CCCCNc1nc(N)ncc1OCCOc1ccnc2ccccc12 [Compound 128] | 3.740 | 2.430 | 284
CCCCNc1nc(N)ncc1O[C@@H](C)c1ccccc1 [Compound 99] | 1.820 | 8.980 | 1280
CCCCNc1nc(N)ncc1OCC1CCCO1 (stereo not drawn) [Compound 100] | 6.160 | 18.950 | 5120
CCC[C@@H](CCO)Nc1nc(N)ncc1OCc1ncc(C)c(OC)c1C [Compound 187] | 0.178 | 0.074 | 22
CCC[C@H](CCO)Nc1nc(N)ncc1OCc1ccccc1 [Compound 190] | 4.330 | 8.620 | 3230
